Series [1] deals with A. fumigatus ALS (Aspergillus fumigatus, UniProt Q4WXQ3). Kind of series: ALS biochemical assay (AfALS). Here is the method:
ALS biochemical assay (AfALS)
Aspergillus fumigatus acetohydroxyacid synthase (AfILV2) lacking the N-terminal mitochondrial-targeting sequence (amino acids 112-752) was overproduced and isolated from E. coli as an N-terminally His6-tagged protein. Assays (50 µL final volume) contained 200 nM His6-AfALS, 8 mM pyruvate, 1 mM thiamine pyrophosphate, and 10 µM flavin adenine dinucleotide, 10 mM MgCl2, 1 mM DTT, 1% DMSO (± inhibitor) in 200 mM KH2PO4 buffer at pH
7.5. Following a 30 min pre-incubation of the enzyme and inhibitor in the reaction mixture at room temperature, reactions were initiated with the addition of pyruvate. AfALS assays were carried out at 30 °C for 120 min. The reaction was quenched with the addition of 5 µL of 10% H2SO4 (v/v in deionized water). Reactions were incubated at 60 °C at incubating microplate shaker for 15 min to convert the product of the ALS reaction, acetolactate, to acetoin.
Subsequently, the concentration of acetoin was determined by the addition of 7.5 µL 6 M NaOH, 25 µL 0.5% creatine (w/v in deionized water), and 25 µL 4% 1-naphthol (w/v in 2.5 M NaOH).
This mixture was incubated at 60 °C in an incubating microplate shaker for 15 min. 40 µL of this reaction mixture was transferred to a half area UV-star 96-well plate (Grenier) and the absorbance at 525 nm was measured on a Spark multimode plate reader (Tecan). The percent inhibition was calculated by the comparison of the signal to DMSO (0% inhibition) and no enzyme (100% inhibition) controls. IC50 values were calculated from the dose response curves using Prism 9 (four parameter, variable slope). […]
(amino acids 58-687) was codon optimized for expression in E. coli and synthesized by […]

Series [2] in a line: Liver microsome stability, mouse. The class given is in vitro ADME. The conditions noted are these: mouse liver microsomes; read-out: Liver microsome t1/2 Mouse. (In general: Liver microsomes are a subcellular fraction often used to study metabolism.)
Series [3] addresses T1, S. cerevisiae ALS (Saccharomyces cerevisiae, UniProt P07342).
T1 construct: made in house; host or cells: E. coli BL21 (DE3), pET28a-ScILV2
Nature of the series: Kinetic characterization: IC50 vs concentration of active ALS. The class given is biochemical. Particulars: IC50 equal to half the concentration of active ALS.

On the set-up of series [4]: method as in PMID 41148120. Particulars: another study; cited from earlier work.
Series [5] is described as follows: Plasma stability, mouse. The conditions noted are these: read-out: Plasma t1/2 Mouse. The class given is in vitro ADME.

Usually IC50 stands for the concentration at which inhibition is half-maximal. A higher IC50 goes with lower potency.

A. fumigatus ALS, sequence (Q4WXQ3 entry or part of it): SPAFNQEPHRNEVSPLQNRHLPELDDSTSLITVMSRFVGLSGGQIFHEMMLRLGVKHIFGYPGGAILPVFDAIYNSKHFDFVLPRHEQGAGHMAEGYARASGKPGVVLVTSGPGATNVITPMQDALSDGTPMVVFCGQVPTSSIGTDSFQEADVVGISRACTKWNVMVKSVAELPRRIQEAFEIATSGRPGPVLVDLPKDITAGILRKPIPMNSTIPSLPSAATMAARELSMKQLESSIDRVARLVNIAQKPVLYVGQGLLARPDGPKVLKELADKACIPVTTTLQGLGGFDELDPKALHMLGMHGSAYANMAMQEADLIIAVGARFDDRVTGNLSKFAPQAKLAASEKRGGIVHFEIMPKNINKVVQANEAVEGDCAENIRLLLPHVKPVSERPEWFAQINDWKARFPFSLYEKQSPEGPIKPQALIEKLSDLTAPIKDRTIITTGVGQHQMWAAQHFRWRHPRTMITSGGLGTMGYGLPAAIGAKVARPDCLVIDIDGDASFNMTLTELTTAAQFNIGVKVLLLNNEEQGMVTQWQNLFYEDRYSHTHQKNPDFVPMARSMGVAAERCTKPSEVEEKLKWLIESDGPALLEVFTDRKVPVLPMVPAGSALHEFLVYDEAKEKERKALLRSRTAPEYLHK
T1 sequence (P07342 58-687): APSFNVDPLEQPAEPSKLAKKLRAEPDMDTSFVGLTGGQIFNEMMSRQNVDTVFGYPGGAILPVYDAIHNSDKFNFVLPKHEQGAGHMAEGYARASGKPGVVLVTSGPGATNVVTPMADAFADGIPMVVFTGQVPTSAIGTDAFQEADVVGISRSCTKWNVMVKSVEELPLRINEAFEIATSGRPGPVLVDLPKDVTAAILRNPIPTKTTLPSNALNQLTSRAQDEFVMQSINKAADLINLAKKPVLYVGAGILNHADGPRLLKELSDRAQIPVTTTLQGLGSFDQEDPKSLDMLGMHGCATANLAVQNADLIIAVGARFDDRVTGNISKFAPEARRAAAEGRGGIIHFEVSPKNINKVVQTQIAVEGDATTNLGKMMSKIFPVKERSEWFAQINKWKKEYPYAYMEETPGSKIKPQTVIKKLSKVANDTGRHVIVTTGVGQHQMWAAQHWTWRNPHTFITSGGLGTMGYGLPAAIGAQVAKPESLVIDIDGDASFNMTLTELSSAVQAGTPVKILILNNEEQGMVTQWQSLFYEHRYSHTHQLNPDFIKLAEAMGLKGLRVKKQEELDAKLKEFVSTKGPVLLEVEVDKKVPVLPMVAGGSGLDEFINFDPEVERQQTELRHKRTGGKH

`CCCC1C(C)=CC2CC=CC3(C)C2C1C(=O)C31C(=O)NC(CCCO)C1=O` (centres unmarked) [compound 1] showed an IC50 in series [1] of 49 ± 8 nM. Also, the results for the half-life in series [2] and in series [5] were 3 min and 88 min, respectively. Moreover, in series [3], the “binding kinetics (IC50 vs concentration of active ALS)” value is given as “tight-binding kinetics”. The herbicidal activity entry in series [4] is reported as “modest herbicidal activity”.

(Values after publication PMC12947280, “An Antifungal with a Novel Mechanism of Action Discovered via Resistance Gene-Guided Genome Mining” (ACS Central Science, 2026).)
